Data taken from patent publication US9919998B2, “Antibacterial agents: Nα-aroyl-N-aryl-phenylalaninamides” (priority 2014, dated 2018).
Converted amounts (≈) assume the structure as drawn.

How the values were obtained:
Format in all cases: cell-based
[1] = system: Mycobacterium tuberculosis H37Rv; assay: Microplate Alamar Blue assay (MABA) MIC, M. tuberculosis; conditions: read-out: MIC Mycobacterium tuberculosis H37Rv
Description: (§1) Minimal inhibitory concentrations (MICs) in Mycobacterium tuberculosis H37Rv and Mycobacterium avium ATCC 25291 were quantified using microplate Alamar Blue assays as described (MABA; [Collins, L. & Franzblau, S. (1997) Microplate Alamar Blue assay versus BACTEC 460 system for high-throughput screening of compounds against Mycobacterium tuberculosis and Mycobacterium avium. Antimicrob. Agents Chemother. 41, 1004-1009]).

[2] = system: Vero E6 ATCC CRL1586 cells; assay: Mammalian-cell cytotoxicity, minimal cytotoxic concentration (CellTiter96)
Description: Minimal cytotoxic concentrations (MCCs) against mammalian cells in culture were determined using Vero E6 ATCC CRL1586 cells and the CellTiter96 assay kit (Promega, Inc.). […]

[3] = system: Mycobacterium smegmatis ATCC 19420; assay: Broth microdilution MIC, M. smegmatis; conditions: Mycolicibacterium smegmatis, ATCC19420, M. smegmatis ATCC 19420; read-out: MIC Mycobacterium smegmatis ATCC 19420
Description: MICs in Mycobacterium smegmatis ATCC 19420 and Mycobacterium smegmatis ATCC 19420 derivatives were quantified using broth microdilution assays as described [Clinical and Laboratory Standards Institute (CLSI/NCCLS) (2009) Methods for Dilution Antimicrobial Susceptibility Tests for Bacteria That Grow Aerobically; Approved Standard, Eighth Edition. CLIS Document M07-A8 (CLIS, Wayne Pa.)].

[4] = system: Mycobacterium avium ATCC 25291; assay: Microplate Alamar Blue assay (MABA) MIC, M. avium; conditions: ATCC25291, M. avium ATCC 25291
Description: as §1

Row | Structure (SMILES) | MIC [1] [µg/mL] | MCC mammalian cells Vero E6 ATCC CRL1586 [2] [µg/mL] | MIC [3] [µg/mL] | MIC [4] [µg/mL]
1 | COc1cccc(NC(=O)C(Cc2ccccc2)NC(=O)c2ccccc2)c1C (stereo not drawn) [I-18] | > 50 | >100 | 0.78 (≈ 2.01 µM) | > 50
2 | CCOc1cccc(C(=O)NC(Cc2ccccc2)C(=O)Nc2ccccc2C)c1 (stereo not drawn) [I-37] | > 50 | 5 | 25 (≈ 62.1 µM) | 
3 | CC(C)Oc1ccccc1NC(=O)C(Cc1ccccc1)NC(=O)c1ccccc1 (stereo not drawn) [I-50] | 12.5 (≈ 31.1 µM) | >100 | 0.78 (≈ 1.94 µM) | > 50
4 | Cc1c(NC(=O)C(Cc2ccccc2)NC(=O)c2ccccc2)cccc1OC(C)C (stereo not drawn) [I-51] | > 50 | >100 | 1.56 (≈ 3.75 µM) | > 50
5 | O=C(NC(Cc1ccccc1)C(=O)Nc1ccccc1OC(F)F)c1ccccc1 (stereo not drawn) [I-61, N-(1-((2-(difluoromethoxy)phenyl)amino)-1-oxo-3-phenylpropan-2-yl)benzamide] | 6.25 (≈ 15.2 µM) | >100 | 0.39 (≈ 0.95 µM) | 6.25 (≈ 15.2 µM)
6 | Cc1ccccc1NC(=O)C(Cc1ccccc1)NC(=O)c1cccc(OC(F)F)c1 (stereo not drawn) [I-70] | 6.25 (≈ 14.7 µM) | 90 | 50 (≈ 118 µM) | > 50
7 | Cc1c(F)cccc1NC(=O)C(Cc1ccccc1)NC(=O)c1ccccc1 (stereo not drawn) [I-73] | > 50 | 19 | 0.78 (≈ 2.07 µM) | > 50
8 | Cc1cccc(NC(=O)C(Cc2ccccc2)NC(=O)c2ccccc2)c1C (stereo not drawn) [I-105] | 3.12 (≈ 8.39 µM) | 21 | 0.39 (≈ 1.05 µM) | 12.5 (≈ 33.6 µM)
9 | Cc1cccc(C(=O)NC(Cc2ccccc2)C(=O)Nc2ccccc2C)c1 (stereo not drawn) [I-113] | > 50 | >100 | 1.56 (≈ 4.19 µM) | 
10 | CCc1cccc(NC(=O)C(Cc2ccccc2)NC(=O)c2ccccc2)c1C (stereo not drawn) [I-116] | 6.25 (≈ 16.2 µM) | 90 | 0.78 (≈ 2.02 µM) | 6.25 (≈ 16.2 µM)
11 | CCc1ccccc1C(=O)NC(Cc1ccccc1)C(=O)Nc1ccccc1C (stereo not drawn) [I-123] | > 50 | >100 | 1.56 (≈ 4.04 µM) | > 50
12 | CCc1cccc(C(=O)NC(Cc2ccccc2)C(=O)Nc2ccccc2C)c1 (stereo not drawn) [I-124] | > 50 | >39 | 25 (≈ 64.7 µM) | 
13 | CCCc1ccccc1NC(=O)C(Cc1ccccc1)NC(=O)c1ccccc1 (stereo not drawn) [I-126] | > 50 | 10 | 1.56 (≈ 4.04 µM) | > 50
14 | CCCc1cccc(NC(=O)C(Cc2ccccc2)NC(=O)c2ccccc2)c1C (stereo not drawn) [I-127] | > 50 | 100 | 3.12 (≈ 7.8 µM) | > 50
15 | Cc1c(NC(=O)C(Cc2ccccc2)NC(=O)c2ccccc2)cccc1C(C)C (stereo not drawn) [I-138] | 6.25 (≈ 15.6 µM) | >100 | 0.78 (≈ 1.95 µM) | > 50
16 | O=C(NC(Cc1ccccc1)C(=O)Nc1ccccc1C(F)F)c1ccccc1 (stereo not drawn) [I-148] | 6.25 (≈ 15.8 µM) | 100 | 3.12 (≈ 7.92 µM) | > 50
17 | Cc1c(NC(=O)C(Cc2ccccc2)NC(=O)c2ccccc2)cccc1C(F)F (stereo not drawn) [I-149] | > 50 | 20 | 0.39 (≈ 0.955 µM) | > 50

Row | Structure (SMILES) | MIC [1] [µg/mL] | MCC mammalian cells Vero E6 ATCC CRL1586 [2] [µg/mL] | MIC [3] [µg/mL] | MIC [4] [µg/mL]
18 | Cc1ccccc1NC(=O)C(Cc1ccc(N2CCOCC2)cc1)NC(=O)c1ccccc1 (stereo not drawn) [I-188] | 25 (≈ 56.4 µM) | 35 | 6.25 (≈ 14.1 µM) | 
19 | O=C(NC(Cc1ccccc1)C(=O)Nc1ccccc1N1CCCC1)c1ccccc1 (stereo not drawn) [I-192] | 9.4 (≈ 22.7 µM) | >100 | 0.78 (≈ 1.89 µM) | 25 (≈ 60.5 µM)
20 | Cc1c(NC(=O)C(Cc2ccccc2)NC(=O)c2ccccc2)cccc1N1CCCC1 (stereo not drawn) [I-193] | 6.25 (≈ 14.6 µM) | >100 | 6.25 (≈ 14.6 µM) | 50 (≈ 117 µM)
21 | O=C(NC(Cc1ccccc1)C(=O)Nc1ccccc1-n1cncn1)c1ccccc1 (stereo not drawn) [I-203] | 12.5 (≈ 30.4 µM) | >100 | 0.78 (≈ 1.9 µM) | 50 (≈ 122 µM)
22 | Cc1c(NC(=O)C(Cc2ccccc2)NC(=O)c2ccccc2)cccc1-n1cncn1 (stereo not drawn) [I-204] | 25 (≈ 58.8 µM) | >100 | 3.12 (≈ 7.34 µM) | 
23 | O=C(NC(Cc1ccccc1)C(=O)Nc1ccccc1-n1ccnn1)c1ccccc1 (stereo not drawn) [I-214] | > 50 | >100 | 3.12 (≈ 7.59 µM) | 
24 | Cc1c(NC(=O)C(Cc2ccccc2)NC(=O)c2ccccc2)cccc1-n1ccnn1 (stereo not drawn) [I-215] | > 50 | >100 | 3.12 (≈ 7.34 µM) | 
25 | O=C(NC(Cc1ccccc1)C(=O)Nc1ccccc1-n1cnnn1)c1ccccc1 (stereo not drawn) [I-225] | > 50 | >100 | 6.25 (≈ 15.2 µM) | 
26 | Cc1c(NC(=O)C(Cc2ccccc2)NC(=O)c2ccccc2)cccc1-n1cnnn1 (stereo not drawn) [I-226] | > 50 | >100 | 0.78 (≈ 1.83 µM) | 
27 | O=C(NC(Cc1ccc(O)cc1)C(=O)Nc1cccc2cnccc12)c1ccccc1 (stereo not drawn) [IX-19, N-(3-(4-hydroxyphenyl)-1-(isoquinolin-5-ylamino)-1-oxopropan-2-yl)benzamide] | 6.25 (≈ 15.2 µM) | 42 | 0.39 (≈ 0.948 µM) | 
28 | Cc1ccccc1NC(=O)C(Cc1ccc(O)c(O)c1)NC(=O)c1ccccc1 (stereo not drawn) [IX-25, N-(3-(3,4-dihydroxyphenyl)-1-oxo-1-(o-tolylamino)propan-2-yl)benzamide] |  | 21 | 1.56 (≈ 4 µM) | 
29 | O=C(NC(Cc1ccccc1)C(=O)Nc1cccc2ncccc12)c1ccccc1F (stereo not drawn) [IX-58, 2-fluoro-N-(1-oxo-3-phenyl-1-(quinolin-5-ylamino)propan-2-yl)benzamide] |  | 78 | 1.56 (≈ 3.77 µM) | 
30 | Cc1ccccc1NC(=O)C(Cc1ccc(O)cc1)NC(=O)c1ccccc1C (stereo not drawn) [IX-66, N-(3-(4-hydroxyphenyl)-1-oxo-1-(o-tolylamino)propan-2-yl)-2-methylbenzamide] | 50 (≈ 129 µM) | >100 | 1.56 (≈ 4.02 µM) | 
31 | CC1CN(c2ccc(F)cc2NC(=O)C(Cc2ccccc2)NC(=O)c2ccccc2F)CCN1 (stereo not drawn) [IX-305, 2-fluoro-N-(1-((5-fluoro-2-(3-methylpiperazin-1-yl)phenyl)amino)-1-oxo-3-phenylpropan-2-yl)benzamide] | 1.56 (≈ 3.26 µM) |  | 0.78 (≈ 1.63 µM) | 12.5 (≈ 26.1 µM)
32 | O=C(NC(Cc1ccccc1)C(=O)Nc1cc(F)ccc1N1CC2CCCNC2C1)c1ccccc1F (stereo not drawn) [IX-307, 2-fluoro-N-(1-((5-fluoro-2-(octahydro-6H-pyrrolo[3,4-b]pyridin-6-yl)-phenyl)amino)-1-oxo-3-phenylpropan-2-yl)benzamide] | 12.5 (≈ 24.8 µM) |  | 6.12 (≈ 12.1 µM) | 25 (≈ 49.5 µM)
33 | CC1CN(c2ccc(F)cc2NC(=O)C(Cc2ccccc2)NC(=O)c2ccccc2F)CC(C)N1 (stereo not drawn) [IX-308, N-(1-((2-(3,5-dimethylpiperazin-1-yl)-5-fluorophenyl)amino)-1-oxo-3-phenylpropan-2-yl)-2-fluorobenzamide] | 3.13 (≈ 6.35 µM) |  | 0.39 (≈ 0.792 µM) | < 0.39
